Here are results for 15 compounds from patent publication US5089507A, “Heterocyclic piperidinyl compounds having analgesic effect” (Dr. L. Zambeletti SpA, priority 1988, dated 1992).

Format in all cases: in vivo, Male Charles River mice (Swiss Strain)
Assay [1] concerns mice (p-phenylquinone-induced abdominal writhing). The experiment in a line: P-phenylquinone-induced abdominal writhing test in mice. The note with it: sc, 20 min pretreatment, p-phenylquinone 2 mg/Kg i.p.; for ED50: Mus musculus, 20 min, read-out: ANALGESIA M. WRITHING (GRADED) ED50. The procedure: A) P-phenylquinone-induced abdominal writhing test in mice
The methodology employed is based on that described by Sigmund et al, Proc. Soc. Exptl. Biol. 95, 729/1957, modified by Milne and Twomey, Agents and Actions, 10, 31/1980.
Male Charles River mice (Swiss Strain), 25-36 g body weight, were used. Animals were allowed food and water ad libitum and were randomized into groups of 10 prior to experimentation. Test compounds were dissolved in either distilled water or distilled water plus 0.1M AMS, and administered by the subcutaneous route in a final volume of 10 ml/Kg. Control animals received 10 ml/Kg of the appropriate vehicle alone. Following a pretreatment period of 20 min., mice were injected intraperitoneally with p-phenylquinone, 2 mg/Kg at 37° C. in a final volume of […]. […] During this period the number of abdominal writhing responses per animal were recorded where writhing consists of an intermittent contraction of the abdomen associated with hind leg extension.
The degree of antinociceptive protection afforded by the test compound was determined as the mean number of writhing responses observed in the treated group (T) expressed as a percentage of the mean number of writhing responses in the control group (C) according to the following formula:
[1-(T/C]×100% graded protection
(Writhing tests count abdominal constrictions after an irritant is injected.)

The subject of assay [2] is mice (tail-flick). The assay can be described thus: Tail-flick test in mice (quantal protection). The note with it: sc, 30 min pretreatment; for ED50: Mus musculus, 0.5 h, read-out: ANALGESIA M. TAIL-FLICK (QUANTAL) ED50; for ANALGESIA M. TAIL-FLICK (QUANTAL) ED50: 30 min. The procedure: (§1) B) Tail-flick test in mice
(§2) The methodology employed is based on that described by D'Amour and Smith, J. Pharmacol. Exp. Ther. 72, 74/1941.
(§3) Male Charles River mice (Swiss Strain), 22-34 g body weight were used. Animals were allowed food and water ad libitum and were randomized into groups of 10 prior to experimentation.
Test compounds were dissolved in either distilled water or distilled water plus 0.1M AMS and administered by the subcutaneous route in a final volume of 10 ml/Kg. Control animals received 10 ml/kg of the appropriate vehicle alone. Following a pretreatment period of 30 min., the mice were again placed under the heat source and the reaction tine re-determined.
Percentage quantal protection was determined as the number of mice in which the reaction time was doubled compared to pretreatment values, expressed as a percentage of the total number of mice in the group.
Background: Thermal pain tests record how soon the animal reacts.

The subject of assay [3] is mice (tail-flick). The experiment in a line: Duration of action, M. tail-flick (graded), % activity at MTFQ ED50. The note with it: mouse, sc. Here is the method: as §1, §2, §3
Test compounds were dissolved in either distilled water or distilled water plus 0.1M AMS and administered by the subcutaneous route in a final volume of 10 ml/Kg. Control animals received 10 ml/kg of the appropriate vehicle alone. Following a pretreatment period of 30 min., the mice were again placed under the heat source and the reaction tine re-determined. […]

The structures appear in SMILES notation. Structures can show the parent of a compound that is named as a salt.

By ED50 is commonly meant the dose at which the effect has come halfway, by size or by number of responders.

Regarding `CC1(C)CCC(CN2CCCC2)N(C(=O)Cc2ccc(Cl)c(Cl)c2)C1` (stereo not drawn) [Example 11, 1-(3,4-dichlorophenyl)acetyl-2-(pyrrolidin-1-yl)methyl-5,5-dimethyl piperidine hydrochloride], in assay [1], the ED50 worked out at 0.605 mg/kg. In the assay on mice (tail-flick) [2], the ED50 worked out at 1.16 mg/kg. Also, in the assay with mice (tail-flick) [3], the “DURATION OF ACTION M. TAIL-FLICK (GRADED) % ACTIVITY AT MTFQ ED50, 30'” value worked out at 59% and the “DURATION OF ACTION M. TAIL-FLICK (GRADED) % ACTIVITY AT MTFQ ED50, 90'” value amounted to 57%.

Regarding `CC1CCC(CN2CCCC2)N(C(=O)Cc2ccc(Cl)c(Cl)c2)C1` (single isomer, unassigned) [Example 4, 1-(3,4-dichlorophenylacetyl)-2-(pyrrolidin-1-yl)methyl-5-methyl piperidine hydrochloride diasteroisomer A], in assay [1], the ED50 worked out at 0.163 mg/kg. In addition, the ED50 in the assay on mice (tail-flick) [2] is 0.749 mg/kg. Moreover, in the assay on mice (tail-flick) [3], the “DURATION OF ACTION M. TAIL-FLICK (GRADED) % ACTIVITY AT MTFQ ED50, 30'” value came out at 80% and the “DURATION OF ACTION M. TAIL-FLICK (GRADED) % ACTIVITY AT MTFQ ED50, 90'” value came out at 54%.

As to `CC1CCCN(C(=O)Cc2ccc(Cl)c(Cl)c2)C1CN1CCCC1` (single isomer, unassigned) [Example 1, 1-(3,4-dichlorophenyl)acetyl-2-(pyrrolidin-1-yl)methyl-3-methyl piperidine hydrochloride hemihydrate diasteroisomer A], in assay [1], the ED50 came out at 0.093 mg/kg. Also, the “ANALGESIA M. TAIL-FLICK (QUANTAL) ED50” value with mice (tail-flick) [2] (mouse) came out at 0.405 mg/kg. For the same compound, in the assay with mice (tail-flick) [3], the “DURATION OF ACTION M. TAIL-FLICK (GRADED) % ACTIVITY AT MTFQ ED50, 30'” value was found to be 87% and the “DURATION OF ACTION M. TAIL-FLICK (GRADED) % ACTIVITY AT MTFQ ED50, 90'” value came out at 68%.

In the case of `CC1(C)CCN(C(=O)Cc2ccc(C(F)(F)F)cc2)C(CN2CCCC2)C1` (stereo not drawn) [Example 15, 1-(4-trifluoromethylphenyl)acetyl-2-(pyrrolidin-1-yl)methyl-4,4-dimethyl piperidine hydrochloride], the ED50 in assay [1] is 0.242 mg/kg. In addition, in the assay on mice (tail-flick) [2], the ED50 was found to be 1.8 mg/kg. For the same compound, in the assay on mice (tail-flick) [3], the “DURATION OF ACTION M. TAIL-FLICK (GRADED) % ACTIVITY AT MTFQ ED50, 30'” value was determined as 58% and the “DURATION OF ACTION M. TAIL-FLICK (GRADED) % ACTIVITY AT MTFQ ED50, 90'” value stood at 63%.

On to `CC1(C)CCCN(C(=O)Cc2ccc3c(c2)CCCC3=O)C1CN1CCCC1` (stereo not drawn) [Example 13, 1-[1-oxo-3,4-dihydro-(2H)-napht-6-yl]acetyl-2-(pyrrolidin-1-yl)methyl-3,3-dimethyl piperidine], for which, in the assay with mice (tail-flick) [2] (mouse), the “ANALGESIA M. TAIL-FLICK (QUANTAL) % protection at 10 mg” value was 60%.

In the case of `O=C(Cc1ccc(Cl)c(Cl)c1)N1CCC[C@H](O)[C@@H]1CN1CCCC1` (relative stereo) [Example 8, 1-(3,4-dichlorophenyl)acetyl-2-(pyrrolidin-1-yl)methyl-3-hydroxy piperidine hydrochloride diastereoisomer B cis], in the assay on mice (tail-flick) [2] (mouse), the “ANALGESIA M. TAIL-FLICK (QUANTAL) % protection at 10 mg” value worked out at 20%.

As to `CC1CCCC(CN2CCCC2)N1C(=O)Cc1ccc(Cl)c(Cl)c1` (single isomer, unassigned; diastereoisomer a) [Example 5, 1-(3,4-dichlorophenyl)acetyl-2-(pyrrolidin-1-yl)methyl-6-methyl piperidine hydrochloride diastereoisomer A], in assay [1], the ED50 was 0.03 mg/kg. Further, the ED50 in the assay on mice (tail-flick) [2] came out at 0.135 mg/kg. Also, in the assay with mice (tail-flick) [3], the “DURATION OF ACTION M. TAIL-FLICK (GRADED) % ACTIVITY AT MTFQ ED50, 30'” value came to 83% and the “DURATION OF ACTION M. TAIL-FLICK (GRADED) % ACTIVITY AT MTFQ ED50, 90'” value was 42%.

On to `CC1(C)CCCN(C(=O)Cc2ccc3c(c2)CCCC3)C1CN1CCCC1` (stereo not drawn) [Example 12, 1-(5,6,7,8-tetrahydronapht-2-yl)acetyl-2-(pyrrolidin-1-yl) methyl-3,3-dimethyl piperidine hydrochloride], for which the ED50 in assay [1] amounted to 0.273 mg/kg. Besides, the 50% effective dose (ED50) in the assay on mice (tail-flick) [2] came out at 1.21 mg/kg. Moreover, in the assay with mice (tail-flick) [3], the “DURATION OF ACTION M. TAIL-FLICK (GRADED) % ACTIVITY AT MTFQ ED50, 30'” value was 67% and the “DURATION OF ACTION M. TAIL-FLICK (GRADED) % ACTIVITY AT MTFQ ED50, 90'” value is recorded as 65%.

As for `CC1CCCC(CN2CCCC2)N1C(=O)Cc1ccc(Cl)c(Cl)c1` (single isomer, unassigned; diastereoisomer a) [Example 6, 1-(3,4-dichlorophenyl)acetyl-2-(pyrrolidin-1-yl)methyl-6-methyl piperidine hydrochloride hemihydrate Diastereoisomer A], in the assay on mice (tail-flick) [2] (mouse, 1.78 mg/Kg), the “ANALGESIA M. TAIL-FLICK (QUANTAL) % protection at 1.78 mg/Kg” value is 60%. In the assay on mice (tail-flick) [3], the “DURATION OF ACTION M. TAIL-FLICK (GRADED) % ACTIVITY AT MTFQ ED50, 30'” value was 77% and the “DURATION OF ACTION M. TAIL-FLICK (GRADED) % ACTIVITY AT MTFQ ED50, 90'” value was 35%.

For the compound `CC1(C)CCN(C(=O)Cc2ccc(Cl)c(Cl)c2)C(CN2CCCC2)C1` (stereo not drawn) [Example 14, 1-(3,4-dichlorophenyl)acetyl-2-(pyrrolidin-1-yl)methyl-4,4-dimethyl piperidine hydrochloride], in assay [1], the ED50 is 0.147 mg/kg. In addition, the ED50 in the assay on mice (tail-flick) [2] came to 0.824 mg/kg. In the assay with mice (tail-flick) [3], the “DURATION OF ACTION M. TAIL-FLICK (GRADED) % ACTIVITY AT MTFQ ED50, 30'” value was determined as 69% and the “DURATION OF ACTION M. TAIL-FLICK (GRADED) % ACTIVITY AT MTFQ ED50, 90'” value was 69%.

`O=C(Cc1ccc(Cl)c(Cl)c1)N1CCC[C@@H](O)[C@@H]1CN1CCCC1` (relative stereo) [Example 7, 1-(3,4-dichlorophenyl)acetyl-2-(pyrrolidin-1-yl)methyl-3-hydroxy piperidine hydrochloride diastereoisomer A trans]: the ED50 was determined as 0.141 mg/kg in assay [1] and 0.825 mg/kg in the assay with mice (tail-flick) [2].

For the compound `CC1(C)CCCN(C(=O)Cc2ccc(C(F)(F)F)cc2)C1CN1CCCC1` (stereo not drawn) [Example 10, 1-(4-trifluoromethylphenyl)acetyl-2-(pyrrolidin-1-yl)methyl-3,3-dimethyl piperidine hydrochloride], in assay [1], the ED50 amounted to 0.023 mg/kg. In the assay on mice (tail-flick) [2], the ED50 turned out to be 0.116 mg/kg. In addition, in the assay with mice (tail-flick) [3], the “DURATION OF ACTION M. TAIL-FLICK (GRADED) % ACTIVITY AT MTFQ ED50, 30'” value was 59% and the “DURATION OF ACTION M. TAIL-FLICK (GRADED) % ACTIVITY AT MTFQ ED50, 90'” value is reported as 57%.

Consider `CC1(C)CCCN(C(=O)Cc2ccc(Cl)c(Cl)c2)C1CN1CCCC1` (stereo not drawn) [Example 9, 1-(3,4-dichlorophenyl)acetyl-2-(pyrrolidin-1-yl)methyl-3,3-dimethyl piperidine hydrochloride], for which, in assay [1], the 50% effective dose (ED50) was found to be 0.029 mg/kg. Besides, the ED50 with mice (tail-flick) [2] is 0.136 mg/kg. Also, in the assay with mice (tail-flick) [3], the “DURATION OF ACTION M. TAIL-FLICK (GRADED) % ACTIVITY AT MTFQ ED50, 30'” value worked out at 86% and the “DURATION OF ACTION M. TAIL-FLICK (GRADED) % ACTIVITY AT MTFQ ED50, 90'” value was found to be 58%.

Turning to `CC1CCCN(C(=O)Cc2ccc(Cl)c(Cl)c2)C1CN1CCCC1` (single isomer, unassigned) [Example 2, 1-(3,4-dichlorophenyl)acetyl-2-(pyrrolidin-1-yl)methyl-3-methyl piperidine hydrochloride diasteroisomer B], the “ANALGESIA M. WRITHING (GRADED) ED50” value in assay [1] (mouse) worked out at 0.091 mg/kg. Also, the “ANALGESIA M. TAIL-FLICK (QUANTAL) ED50” value in the assay with mice (tail-flick) [2] (mouse) worked out at 0.147 mg/kg. Also, in the assay with mice (tail-flick) [3], the “DURATION OF ACTION M. TAIL-FLICK (GRADED) % ACTIVITY AT MTFQ ED50, 30'” value turned out to be 66% and the “DURATION OF ACTION M. TAIL-FLICK (GRADED) % ACTIVITY AT MTFQ ED50, 90'” value was 44%.

Take `CC1CCN(C(=O)Cc2ccc(Cl)c(Cl)c2)C(CN2CCCC2)C1` (single isomer, unassigned; diastereoisomer a) [Example 3, 1-(3,4-dichlorophenylacetyl)-2-(pyrrolidin-1-yl)methyl-4-methyl piperidine hydrochloride hemihydrate diastereoisomer A]: the ED50 stood at 0.149 mg/kg in assay [1] and 0.202 mg/kg in the assay on mice (tail-flick) [2]. In addition, in the assay on mice (tail-flick) [3], the “DURATION OF ACTION M. TAIL-FLICK (GRADED) % ACTIVITY AT MTFQ ED50, 30'” value was 86%. In addition, in the assay with mice (tail-flick) [3], the “DURATION OF ACTION M. TAIL-FLICK (GRADED) % ACTIVITY AT MTFQ ED50, 90'” value is given as 17%.
